Experimental data as given in patent publication US11130762B2, “Azaaryl derivative, preparation method therefor, and application thereof for use in pharmacy” (Abbisko Therapeutics Co., Ltd., priority 2017, dated 2021).

Columns and labels:
[1] = tested on: MV-4-11 human acute monocytic leukemia cells; assay: Cell proliferation (Cell Titer Glo), MV-4-11 cells (FLT3); assay type: cell-based; details: MV4-11, 72 h, 3 days, CTG, * = average of multiple tests, read-out: Cytological experiment FLT3 IC50
Experimental: (§1) D. CSF-1R-Related Cell Proliferation Experiment
(§2) Functional effects of compounds on the proliferation of several cell lines were evaluated by Cell Titer Glo (CTG) studies in the present invention, and effects of the compounds on the proliferation of different cells were evaluated to determine the selectivity degree of the compounds. In the experiment, M-07e human cytomegalic leukemia cells (cat. No. CBP60791) from Nanjing Kebai Biotechnology Co., Ltd. were cultured in an incubator under conditions of RPMI1640 (Gibco, cat. No. 11875-119), 20% fetal bovine serum (Gibco, 10099-141), human 10 ng/mL GM-CSF granulocyte macrophage colony-stimulating factors (R&D, cat. No. 215-GM-010), 37° C., and 5% CO2; and Kasumi-1 human acute myeloblastic leukemia cells (cat. No. CBP60524) were cultured in an incubator under conditions of RPMI1640 (Gibco, cat. No. 11875-119), 20% fetal bovine serum (Gibco, 10099-141), 37° C., and 5% CO2: NCI-H1703 human non-small cell lung squamous carcinoma cells (cat. No. CBP60115) were cultured in an incubator under conditions of RPMI1640 (Gibco, cat. No. 11875-119), 10% fetal bovine serum (Gibco, 10099-141), 37° C., and 5% CO2; MV-4-11 human acute monocytic leukemia cells (cat. No. CBP60522) were cultured in an incubator under conditions of IMDM (Invitrogen, cat. No. 12440053), 20% fetal bovine serum (Gibco, 10099-141), 37° C., and 5% CO2. Since ATP is an index for viable cell metabolism, CTG (Promega, #G7573) reagent is a homogeneous detection method for detecting the number of viable cells in the culture by quantifying ATP. Therefore, compound-mediated inhibition for cell proliferation/survival was evaluated by quantifying ATP content in cells, and the specific experimental process was as follows.
III) MV-4-11 Human Acute Monocytic Leukemia Cell
1. The cells were inoculated into a tissue-culture-medium-treated 96-well plate (Costar #3904) with 5000 cells/well/90 μL fresh culture medium, and cultured for 24 hrs:
2. the next day, 10 μL of culture medium containing testing compound with 10-fold of final concentration was added to each well;
3. the dosage effect was evaluated by testing 3-fold serial dilutions of the compound, which started from 18 μM;
4. after the cells were incubated for 3 days at 37° C. and 5% CO2, the inhibition on cell survival was quantified after 50 μL of CTG was added and the luminescence assay was performed;
5. the compound concentration leading to half maximal inhibitory (IC50) and the compound concentration leading to absolute half maximal inhibitory (Absolute IC50) were measured by a plate reader (M1000, Tecan) and a four-parameter curve fit in Graphpad Prism 7.

PDGFRA kinase = PDGFRA kinase (Homo sapiens, UniProt P16234); assay: PDGFRA in vitro biochemical kinase study (Caliper EZ Reader); details: Caliper mobility shift; read-out: Enzymatic experiment PDGFRA IC50
Experimental: B. KIT/PDGFRA In Vitro Biochemical Kinase Study
1. Preparation of 1-Fold Kinase Buffer and Stop Solution
1.2 stop solution: 100 mM HEPES, pH 7.5, 0.015% Brij-35, 0.2% Coating Reagent #3, 50 mM EDTA
2. Preparation of Compound Solution
2.1 Dilution of Compound Solution
1) The final concentration of the compound solution was 40 μM, and the concentration of the prepared stock solution was 50 times of the final concentration, i.e., 2 mM.
2) 80 μL of 100% DMSO was added to the second well of the 96-well plate, then 20 μL of 10 mM compound solution was added, and thereby 2 mM compound solution was prepared, 60 μL of 100% DMSO was added to other wells, 20 μL of compound was taken from the second well, added to the third well and diluted by 4 times. This serial 4-time dilution was conducted in sequence for the total of 10 concentrations.
2.2 5-Fold Compound Solution Transferred to a Reaction Plate
1) 10 μL of solution was taken from each well of the above 96-well plate and added to another 96-well plate, and 90 μL of kinase buffer was added.
2) 5 μL of solution was taken from the above 96-well plate and added to a 384-well reaction plate.
1) KIT/PDGFRA kinase was added to the 1-fold kinase buffer solution to obtain a 2.5-fold kinase solution.
2) FAM-labeled polypeptide and ATP were added to the 1-fold kinase buffer solution to obtain a 2.5-fold substrate solution.
3) 10 μL of 2.5-fold kinase solution was added to the 384-well reaction plate, which already contained 5 μL of 5-fold compound in 10% DMSO. And the mixed solution was incubated at room temperature for 10 min.
4) 10 μL of 2.5-fold substrate solution was added to the 384-well reaction plate.
5) Kinase reaction and termination: the mixed solution was incubated at 28° C. for a certain period of time, and 25 μL of stop solution was added to stop the reaction.
2.4 Data Reading of Caliper EZ Reader II
2.5 Calculation of Percent Inhibition and IC50
1) Percent conversion data were copied from the Caliper EZ Reader. […]

[2] = tested on: M-07e human cytomegalic leukemia cells; assay: Cell proliferation (Cell Titer Glo), M-07e cells with SCF (KIT); assay type: cell-based; details: 72 h, 3 days, CTG, * = average of multiple tests, read-out: Cytological experiment KIT IC50
Experimental: as §1, §2
I) M-07e Human Cytomegalic Leukemia Cell:
1. The cells were plated into a tissue-culture-medium-treated 96-well plate (Costar #3904) with 3500 cells/well/80 μL fresh culture medium, and cultured for 24 hrs;
2. the next day, 10 μL of culture medium containing testing compound with 10-fold of final concentration was added to each well:
3. 10 μL of culture medium containing SCF recombinant human stem cell factor (R&D, cat. No. 7466-SC-010) with 10-fold of the final concentration was then added to each well;
4. the dosage effect was evaluated by testing 4-fold serial dilutions of the compound, which started from 18 μM;
5. after the cells were incubated for 3 days at 37° C. and 5% CO2, the inhibition on cell survival was quantified after 50 μL of CTG was added and the luminescence assay was performed;
6. the compound concentration leading to half maximal inhibitory (IC50) and the compound concentration leading to absolute half maximal inhibitory (Absolute IC50) were measured by a plate reader (M1000, Tecan) and a four-parameter curve fit in Graphpad Prism 7.

PDGFRA kinase, sequence (P16234 24-1089): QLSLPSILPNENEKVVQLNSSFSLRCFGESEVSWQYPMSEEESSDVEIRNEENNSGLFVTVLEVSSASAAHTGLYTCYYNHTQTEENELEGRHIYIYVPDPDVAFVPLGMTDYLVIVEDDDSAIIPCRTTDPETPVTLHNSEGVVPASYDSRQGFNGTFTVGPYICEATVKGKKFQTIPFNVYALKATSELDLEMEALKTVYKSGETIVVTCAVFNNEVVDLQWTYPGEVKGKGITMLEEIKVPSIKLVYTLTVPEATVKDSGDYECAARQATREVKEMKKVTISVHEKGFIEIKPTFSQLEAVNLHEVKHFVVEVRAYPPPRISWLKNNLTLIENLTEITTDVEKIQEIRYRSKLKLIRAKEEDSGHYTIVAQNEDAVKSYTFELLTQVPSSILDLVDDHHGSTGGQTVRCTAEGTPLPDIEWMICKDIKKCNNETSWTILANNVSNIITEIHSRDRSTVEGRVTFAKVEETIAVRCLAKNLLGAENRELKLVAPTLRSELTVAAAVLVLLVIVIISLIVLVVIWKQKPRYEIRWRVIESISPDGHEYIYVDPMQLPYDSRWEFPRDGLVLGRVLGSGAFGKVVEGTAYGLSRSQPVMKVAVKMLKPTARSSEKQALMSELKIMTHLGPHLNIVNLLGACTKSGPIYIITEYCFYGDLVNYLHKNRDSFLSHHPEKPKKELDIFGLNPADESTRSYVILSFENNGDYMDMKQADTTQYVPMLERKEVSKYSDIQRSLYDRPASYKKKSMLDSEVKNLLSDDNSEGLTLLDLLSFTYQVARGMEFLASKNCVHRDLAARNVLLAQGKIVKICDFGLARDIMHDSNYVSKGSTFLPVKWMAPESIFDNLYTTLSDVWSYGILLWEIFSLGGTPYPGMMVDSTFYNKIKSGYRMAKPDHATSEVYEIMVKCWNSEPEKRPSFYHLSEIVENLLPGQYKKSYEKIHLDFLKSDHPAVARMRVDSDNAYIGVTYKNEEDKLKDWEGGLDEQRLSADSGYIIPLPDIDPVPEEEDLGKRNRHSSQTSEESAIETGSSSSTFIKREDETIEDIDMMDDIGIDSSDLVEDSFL

Compound	IC50 [1] [nM]	IC50 (PDGFRA kinase) [nM]	IC50 [2] [nM]
Cc1nc(-c2cnc3n(c2=O)CCCN3C)ccc1Oc1ccnc(-c2cnn(C)c2)c1 [Example 1, 9-methyl-3-(6-methyl-5-((2-(1-methyl-1H-pyrazol-4-yl)pyridin-4-yl)oxy)pyridin-2-yl)-6,7,8,9-tetrahydro-4H-pyrimido[1,2-a]pyrimidin-4-one]	> 6000	9310	> 2000
CCN1CCCn2c1ncc(-c1ccc(Oc3ccnc(-c4cnn(C)c4)c3)c(C)n1)c2=O [Example 4]	1810	757	436
